The source of these data is patent US6541978B1, “Method, system and device for producing signals from a substance biological and/or chemical activity” (priority 1998, dated 2003).

Several values for one entry are separate records, joined by “and”; a condition that tells them apart may be missing. Equal values may be shown once.

Experiment [1] deals with isolated guinea-pig heart. Nature of the experiment: Perfused isolated guinea-pig heart (Langendorff), injections of the substances. The settings on record: injection of substance 10^−6M. An excerpt: As an example of a biological control system, an d referring to FIG. 2, a test will be described below derived from that known under the test name of a perfused isolated guinea-pig heart (or Langendorff experiment) and whose process is described in the work entitled: “Methods in Immunology and Immunochemistry” published by Williams and Chase, Academic Press 1976, particularly page 68; or further in the work entitled: “L'experimentation animate en cardiologie” INSERM Médecine-Science—Coll. Flammarion—Author Bernard […]—particularly Ch. 3.1 p.81 “Organe Isolé—Coceur Isolé selon Langendorff—Montage à pression coronaire constante”; or further in the work entitled “The isolated perfused Heart according to Langendorff” H. J. Döiring, H. Dehnart—Biomesstechnik—Verlag March GmbH, D-7806 March. In FIG. 2 one recognises the diagram known from the Langendorff experiment. The equipment described in these works has been completed by a transducer in the form of a bobbin 60 of a varnished copper wire of diameter 0.5 mm, with a diameter of 110 mm, a length of 40 mm and with an impedance of 4 ohms.
The fraction collector collected the tubes making it possible to measure the debit of the guinea-pig heart at the rate of 1 tube per minute. The buffer solution crossing the heart had the following composition: CaCl 2 mM, NaHCO3 25 mM, NaCl 118 mM, MgSO4 1.2 mM, KHPO4 1.2 mM, Glucose 11 mM, Pyruvate 2 mM.

Experiment [2] relates to skin of a guinea-pig. Briefly: Guinea-pig cutaneous test (Evans blue marks). The settings on record: 0.1 ml ponderal solution at 10^−6M injected under the skin; single injections. The class given is in vivo. An excerpt: As an example, with reference to FIG. 4, a presentation is given below of the test known under the name of guinea-pig cutaneous test and described in chapter 11 (p.346-351) in the second edition of “Immunology” edited by Jean-Francois Bach, coll. John Wiley & Sons; or further in the 3rd edition of “The handbook of Experimental Immunology” edited by D. M. Weir, coll. Blackwell, Ch. 21 “Passive cutaneous anaphylaxis (PCA)” by W. E. Brocklehurst; or further in the work edited by Williams & Chase entitled “Methods in IMMUNOLOGY and IMMUNOCHEMISTRY”—Vol. 5—Ch. 19 “Anaphylaxis”.
The guinea-pig is used when still alive, and is given a n intravenous injection of a blue colorant (Evans blue—Sigma E 2129) which fixes on the blood albumin.
The test is carried out by injecting under the skin of the animal prepared in this way, 0.1 ml of the solution whose activity is to be controlled. Nextone measures the diameter of the blue marks appearing around the points of injection. In order to do this the skin is scanned, and then the bitmap image file is recorded. Finally the sizes of the blue marks due to the reaction are evaluated.
In the example described, a control was carried out of the presence of signals characteristic of the biological activity of the acetylcholine neuromediator (ACh; Sigma A2661) in solution in a physiological solution, by analysing the effects o n the skin of a guinea-pig: […]

In the case of `Cn1c(=O)c2c(ncn2C)n(C)c1=O` [caffeine], the “quantity of the buffer solution recuperated in the collector tubes” value (“quantity” for short) came out at 5.1 mL in experiment [1] (time 1 min); 5.0 mL in experiment [1] (time 2 min); 5.0 mL in experiment [1] (time 3 min); 4.9 mL in experiment [1] (time 4 min); 4.6 mL in experiment [1] (time 5 min); 4.2 mL in experiment [1] (time 6 min). Also, the “quantity” value in experiment [1] (time 7 min) was 4.0 mL; in experiment [1] (time 8 min) it was 4.1 mL; in experiment [1] (time 9 min), 4.0 mL; in experiment [1] (time 10 min), 4.2 mL; in experiment [1] (time 11 min), 4.1 mL; in experiment [1] (time 12 min) it was 4.3 mL. The “quantity” value in experiment [1] (time 13 min) was 4.4 mL; in experiment [1] (time 14 min), 4.5 mL; in experiment [1] (time 15 min), 4.5 mL; in experiment [1] (time 20 min), 4.6 mL; in experiment [1] (time 25 min) it was 4.5 mL; in experiment [1] (time 30 min), 4.5 mL.
In the case of `CC(=O)OCC[N+](C)(C)C` [ACh, acetylcholine], the “Dia. in mm (diameter of the blue marks around the points of injection)” value in experiment [2] was 23 mm and 25 mm and 21 mm and 18 mm.
Consider `CNc1ccc2oc(C[C@H]3O[C@@]4(CC[C@H]3C)O[C@H]([C@H](C)C(=O)c3ccc[nH]3)[C@H](C)C[C@H]4C)nc2c1C(=O)O` [ionophoretic-calcium, ionophoretic-calcium A 23187], for which the “quantity” value in experiment [1] (time 1 min) came out at 5.1 mL; in experiment [1] (time 2 min), 5.0 mL; in experiment [1] (time 3 min), 5.2 mL; in experiment [1] (time 4 min), 5.0 mL; in experiment [1] (time 5 min), 4.9 mL; in experiment [1] (time 6 min), 5.4 mL. Also, the “quantity” value in experiment [1] (time 7 min) is 5.6 mL; in experiment [1] (time 8 min), 6.2 mL; in experiment [1] (time 9 min) it was 6.4 mL; in experiment [1] (time 10 min), 6.4 mL; in experiment [1] (time 11 min), 6.2 mL; in experiment [1] (time 12 min), 6.0 mL. For the same compound, the “quantity” value amounted to 6.0 mL in experiment [1] (time 13 min); 5.9 mL in experiment [1] (time 14 min); 6.0 mL in experiment [1] (time 15 min); 5.7 mL in experiment [1] (time 20 min); 5.4 mL in experiment [1] (time 25 min); 5.2 mL in experiment [1] (time 30 min).
